Results reported in US9765092B2, “Tricyclic piperidine compounds” (ACTELION PHARMACEUTICALS LTD, priority 2013, dated 2017).

Target: human TPH1 (Homo sapiens (Human), UniProt P17752)
Experiment: Biochemical in vitro assay using fluorescence readout (TPH1 inhibition)
Details: full length human TPH1, 40 μM L-tryptophan, 15° C., 60 minutes, fluorescence at 540 nm; mean if determined several times

Sequence of human TPH1 (P17752 whole entry): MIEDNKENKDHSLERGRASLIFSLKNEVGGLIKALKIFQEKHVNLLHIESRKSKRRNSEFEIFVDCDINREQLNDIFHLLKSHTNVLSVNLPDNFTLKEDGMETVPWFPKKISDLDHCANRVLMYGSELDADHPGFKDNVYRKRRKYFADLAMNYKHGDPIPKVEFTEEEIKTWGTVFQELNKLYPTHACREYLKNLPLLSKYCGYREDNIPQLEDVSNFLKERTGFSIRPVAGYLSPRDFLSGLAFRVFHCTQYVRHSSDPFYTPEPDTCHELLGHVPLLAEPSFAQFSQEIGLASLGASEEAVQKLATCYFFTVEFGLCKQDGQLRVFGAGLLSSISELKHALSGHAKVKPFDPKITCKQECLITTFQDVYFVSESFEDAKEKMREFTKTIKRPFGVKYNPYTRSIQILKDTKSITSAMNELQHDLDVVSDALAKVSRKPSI

Compared with `Cc1nn2c3c(nc2s1)CCN(C(=O)COc1ccc(N2CCOCC2)nc1Cl)C3c1cc(-c2nn[nH]n2)cs1` (stereo not drawn) [Example 1.63.1, 1-(5-(4-(2H-Tetrazol-5-yl)thiophen-2-yl)-2-methyl-7,8-dihydro-[1,3,4]-thiadiazolo-[2′,3′:2,3]imidazo[4,5-c]pyridin-6(5H)-yl)-2-((2-chloro-6-morpholinopyridin-3-yl)oxy)ethanone], `Cc1nn2c3c(nc2s1)CCN(C(=O)COc1ccc(N2CCOCC2)nc1Cl)C3c1sc(-c2nnn[nH]2)cc1F` (stereo not drawn) [Example 1.70.1, 2-((2-Chloro-6-morpholinopyridin-3-yl)oxy)-1-(5-(3-fluoro-5-(1H-tetrazol-5-yl)thiophen-2-yl)-2-methyl-7,8-dihydro-[1,3,4]thiadiazolo[2′,3′:2,3]imidazo-[4,5-c]pyridin-6(5H)-yl)ethanone] is 1.8-fold lower in IC50: 23 nM for the first, 13 nM for the second. The second is the more potent here.

`Cc1nn2c3c(nc2s1)CCN(C(=O)COc1ccc(N2CCOCC2)nc1Cl)C3c1csc(CN(C)C)c1` (stereo not drawn) [Example 1.69.1, 2-((2-Chloro-6-morpholinopyridin-3-yl)oxy)-1-(5-(5-((dimethylamino)-methyl)thiophen-3-yl)-2-methyl-7,8-dihydro-[1,3,4]thiadiazolo[2′,3′:2,3]imidazo[4,5-c]pyridin-6(5H)-yl)ethanone] showed an IC50 of 51 nM.

Same assay, conditions: human TPH1, fluorescence readout

Compared with `Cc1nn2c3c(nc2s1)CCN(C(=O)COc1ccc(NS(C)(=O)=O)nc1Cl)C3c1ccc(C)c(F)c1F` (stereo not drawn) [Example 1.61.2, N-(6-chloro-5-(2-(5-(2,3-difluoro-4-methylphenyl)-2-methyl-7,8-dihydro-[1,3,4]thiadiazolo[2′,3′:2,3]imidazo-[4,5-c]pyridin-6(5H)-yl)-2-oxoethoxy)pyridin-2-yl)methanesulfonamide], `CCc1nc(NS(C)(=O)=O)ccc1OCC(=O)N1CCc2nc3sc(C)nn3c2C1c1ccc(C)c(F)c1F` (stereo not drawn) [Example 1.61.5, N-(5-(2-(5-(2,3-difluoro-4-methylphenyl)-2-methyl-7,8-dihydro-[1,3,4]thiadiazolo[2′,3′:2,3]imidazo[4,5-c]pyridin-6(5H)-yl)-2-oxoethoxy)-6-ethylpyridin-2-yl)methanesulfonamide] is 3.8-fold lower in IC50: 34 nM for the first, 9 nM for the second.

Compared with `CCc1nc(Cl)ncc1OCC(=O)N1CCc2nc3sc(C)nn3c2C1c1ccc(C)c(F)c1F` (stereo not drawn) [Example 1.61.4, 2-((2-chloro-4-ethylpyrimidin-5-yl)oxy)-1-(5-(2,3-difluoro-4-methylphenyl)-2-methyl-7,8-dihydro-[1,3,4]thiadiazolo[2′,3′:2,3]imidazo[4,5-c]pyridin-6(5H)-yl)ethanone], `CCc1nc(NS(C)(=O)=O)ccc1OCC(=O)N1CCc2nc3sc(C)nn3c2C1c1cc(F)c(C)cc1F` (stereo not drawn) [Example 1.74.1, N-(5-(2-(5-(2,5-difluoro-4-methylphenyl)-2-methyl-7,8-dihydro-[1,3,4]thiadiazolo[2′,3′:2,3]imidazo[4,5-c]pyridin-6(5H)-yl)-2-oxoethoxy)-6-ethylpyridin-2-yl)methanesulfonamide] is 2-fold lower in IC50: 49 nM for the first, 25 nM for the second.

Going from `Cc1nn2c3c(nc2s1)CCN(C(=O)COc1ccc(C(=O)N(C)C)nc1Cl)C3c1cccc(F)c1F` (stereo not drawn) [Example 1.62.1, 6-chloro-5-(2-(5-(2,3-difluorophenyl)-2-methyl-7,8-dihydro-[1,3,4]thiadiazolo[2′,3′:2,3]imidazo[4,5-c]pyridin-6(5H)-yl)-2-oxoethoxy)-N,N-dimethylpicolinamide] to `Cc1nc(C)c(C2c3c(nc4sc(C)nn34)CCN2C(=O)COc2ccc(C(=O)N(C)C3CC3)nc2Cl)s1` (stereo not drawn) [Example 1.68.4, 6-chloro-N-cyclopropyl-5-(2-(5-(2,4-dimethylthiazol-5-yl)-2-methyl-7,8-dihydro-[1,3,4]thiadiazolo[2′,3′:2,3]imidazo[4,5-c]pyridin-6(5H)-yl)-2-oxoethoxy)-N-methylpicolinamide], the IC50 falls from 65 nM to 19 nM (3.4-fold). The second is the more potent here.

`CCN(CC)C(=O)c1cc(F)c(C2c3c(nc4sc(C)nn34)CCN2C(=O)COc2ccc(NS(C)(=O)=O)nc2Cl)s1` (stereo not drawn) [Example 1.64.1, 5-(6-(2-((2-chloro-6-(methylsulfonamido)pyridin-3-yl)oxy)acetyl)-2-methyl-5,6,7,8-tetrahydro-[1,3,4]thiadiazolo [2′,3′:2,3]imidazo[4,5-c]pyridin-5-yl)-N,N-diethyl-4-fluorothiophene-2-carboxamide] and `CCc1nc(C)c(C2c3c(nc4sc(C)nn34)CCN2C(=O)COc2ccc(NS(C)(=O)=O)nc2Cl)s1` (stereo not drawn) [Example 1.72.1, N-(6-chloro-5-(2-(5-(2-ethyl-4-methylthiazol-5-yl)-2-methyl-7,8-dihydro-[1,3,4]thiadiazolo[2′,3′:2,3]imidazo-[4,5-c]pyridin-6(5H)-yl)-2-oxoethoxy)pyridin-2-yl)methanesulfonamide] are within 1.5-fold of each other in IC50: 21 nM for the first, 22 nM for the second.

Compared with `COC1(c2cnc(C3c4c(nc5sc(C)nn45)CCN3C(=O)COc3ccc(N4CCOCC4)nc3Cl)s2)COC1` (stereo not drawn) [Example 1.65.1, 2-((2-chloro-6-morpholinopyridin-3-yl)oxy)-1-(5-(5-(3-methoxyoxetan-3-yl)thiazol-2-yl)-2-methyl-7,8-dihydro-[1,3,4]thiadiazolo[2′,3′:2,3]imidazo[4,5-c]pyridin-6(5H)-yl)ethanone], `Cc1nc(C)c(C2c3c(nc4sc(C)nn34)CCN2C(=O)COc2ccc(N3CCOCC3)nc2Cl)o1` (stereo not drawn) [Example 1.66.1, 2-((2-chloro-6-morpholinopyridin-3-yl)oxy)-1-(5-(2,4-dimethyloxazol-5-yl)-2-methyl-7,8-dihydro-[1,3,4]thiadiazolo [2′,3′:2,3]imidazo[4,5-c]pyridin-6(5H)-yl)ethanone] is 16-fold lower in IC50: 208 nM for the first, 13 nM for the second. The second is the more potent here.

First: Cc1nc(C2c3c(nc4sc(C)nn34)CCN2C(=O)COc2ccc(N3CCOCC3)nc2Cl)c(C)o1 (stereo not drawn) [Example 1.67.1, 2-((2-chloro-6-morpholinopyridin-3-yl)oxy)-1-(5-(2,5-dimethyloxazol-4-yl)-2-methyl-7,8-dihydro-[1,3,4]thiadiazolo [2′,3′:2,3]imidazo[4,5-c]pyridin-6(5H)-yl)ethanone]
Second: Cc1nc(C)c(C2c3c(nc4sc(C)nn34)CCN2C(=O)COc2ccc(N3CCCS3(=O)=O)nc2Cl)s1 (stereo not drawn) [Example 1.68.5, 2-((2-chloro-6-(1,1-dioxidoisothiazolidin-2-yl)pyridin-3-yl)oxy)-1-(5-(2,4-dimethylthiazol-5-yl)-2-methyl-7,8-dihydro-[1,3,4]thiadiazolo[2′,3′:2,3]imidazo[4,5-c]pyridin-6(5H)-yl)ethanone]
The IC50 of the first is 5-fold higher: 25 nM for the first, 5 nM for the second.

Compared with `Cc1nc(C)c(C2c3c(nc4sc(C)nn34)CCN2C(=O)COc2ccc(NS(C)(=O)=O)nc2Cl)s1` (stereo not drawn) [Example 1.68.2, N-(6-chloro-5-(2-(5-(2,4-dimethylthiazol-5-yl)-2-methyl-7,8-dihydro-[1,3,4]thiadiazolo[2′,3′:2,3]imidazo[4,5-c]pyridin-6(5H)-yl)-2-oxoethoxy)pyridin-2-yl)methanesulfonamide], `Cc1nn2c3c(nc2s1)CCN(C(=O)COc1ccc(NS(C)(=O)=O)nc1Cl)C3c1sc(C(C)C)nc1C` (stereo not drawn) [Example 1.73.1, N-(6-chloro-5-(2-(5-(2-isopropyl-4-methylthiazol-5-yl)-2-methyl-7,8-dihydro-[1,3,4]thiadiazolo[2′,3′:2,3]imidazo[4,5-c]pyridin-6(5H)-yl)-2-oxoethoxy)pyridin-2-yl)methanesulfonamide] is 6.7-fold higher in IC50: 9 nM for the first, 60 nM for the second.

First: Cc1nc(C)c(C2c3c(nc4sc(C)nn34)CCN2C(=O)COc2ccc(-c3ncco3)nc2Cl)s1 (stereo not drawn) [Example 1.68.3, 2-((2-chloro-6-(oxazol-2-yl)pyridin-3-yl)oxy)-1-(5-(2,4-dimethylthiazol-5-yl)-2-methyl-7,8-dihydro-[1,3,4]thiadiazolo[2′,3′:2,3]imidazo[4,5-c]pyridin-6(5H)-yl)ethanone]
Second: Cc1nc(C)c(C2c3c(nc4sc(C)nn34)CCN2C(=O)COc2ccc(N(C)S(C)(=O)=O)nc2Cl)s1 (stereo not drawn) [Example 1.68.6, N-(6-chloro-5-(2-(5-(2,4-dimethylthiazol-5-yl)-2-methyl-7,8-dihydro-[1,3,4]thiadiazolo[2′,3′:2,3]imidazo[4,5-c]-pyridin-6(5H)-yl)-2-oxoethoxy)pyridin-2-yl)-N-methylmethanesulfonamide]
The IC50 of the first is 1.5-fold higher: 9 nM for the first, 6 nM for the second. The second is the more potent here.

Compared with `CCc1nc(NS(C)(=O)=O)ccc1OCC(=O)N1CCc2nc3sc(C)nn3c2C1c1sc(C)nc1C` (stereo not drawn) [Example 1.68.7, N-(5-(2-(5-(2,4-dimethylthiazol-5-yl)-2-methyl-7,8-dihydro-[1,3,4]thiadiazolo[2′,3′:2,3]imidazo[4,5-c]-pyridin-6(5H)-yl)-2-oxoethoxy)-6-ethylpyridin-2-yl)methanesulfonamide], `CCc1nc(NS(C)(=O)=O)ncc1OCC(=O)N1CCc2nc3sc(C)nn3c2C1c1sc(C)nc1C` (stereo not drawn) [Example 1.68.9, N-(5-(2-(5-(2,4-dimethylthiazol-5-yl)-2-methyl-7,8-dihydro-[1,3,4]thiadiazolo[2′,3′:2,3]imidazo[4,5-c]pyridin-6(5H)-yl)-2-oxoethoxy)-4-ethylpyrimidin-2-yl)methanesulfonamide] is 6-fold higher in IC50: 11 nM for the first, 66 nM for the second. The first is the more potent here.

`CCc1nc(N2CCCS2(=O)=O)ccc1OCC(=O)N1CCc2nc3sc(C)nn3c2[C@@H]1c1sc(C)nc1C` [Example 1.68.8, (R)-1-(5-(2,4-dimethylthiazol-5-yl)-2-methyl-7,8-dihydro-[1,3,4]thiadiazolo[2′,3′:2,3]imidazo[4,5-c]pyridin-6(5H)-yl)-2-((6-(1,1-dioxidoisothiazolidin-2-yl)-2-ethylpyridin-3-yl)oxy)ethanone] and `CCc1nc(NS(C)(=O)=O)ccc1OCC(=O)N1CCc2nc3sc(C)nn3c2C1c1sccc1F` (stereo not drawn) [Example 1.71.2, N-(6-ethyl-5-(2-(5-(3-fluorothiophen-2-yl)-2-methyl-7,8-dihydro-[1,3,4]thiadiazolo[2′,3′:2,3]imidazo[4,5-c]pyridin-6(5H)-yl)-2-oxoethoxy)pyridin-2-yl)methanesulfonamide] are within 1.5-fold of each other in IC50: 5 nM for the first, 7 nM for the second.

Compound `CCc1nc(C(=O)NC2CC2)ccc1OCC(=O)N1CCc2nc3sc(C)nn3c2C1c1sccc1F` (stereo not drawn) [Example 1.71.1, N-cyclopropyl-6-ethyl-5-(2-(5-(3-fluorothiophen-2-yl)-2-methyl-7,8-dihydro-[1,3,4]thiadiazolo[2′,3′:2,3]-imidazo[4,5-c]pyridin-6(5H)-yl)-2-oxoethoxy)picolinamide] has an IC50 of 12 nM.
